Measurements taken from patent US20240182406A1, “COMPOUNDS AS SOLUBLE EPOXIDE HYDROLASE INHIBITORS” (UNIVERSITAT DE BARCELONA, priority 2021, published 2024).
Marks after values point to notes of the source that are not given here.

Columns and labels:
[1] = test system: TREM2; test: Western blot of hippocampus, neuroinflammation marker TREM2 (5×FAD mice); format: in vivo, mouse; settings: 5×FAD male mice, 5 mg/kg, 4 weeks, Arbitrary Units, control as 100%
Text: (§1) 5×FAD (tg6799) is an early-onset mouse transgenic model which overexpress mutant human APP(695) with the Swedish (K670N, M671L), Florida (I716V) and London (V717I) Familial Alzheimer's Disease (FAD) mutations along with human PS1 harbouring two FAD mutations (M146L and L286V). The Tg6799 line used is the original hybrid B6SJL background, and this hybrid B6SJL strain is used as a control of healthy animals. The mouse Thy1 promoter regulates both transgenes to drive overexpression in the brain. 5×FAD mice recapitulate major features of AD amyloid pathology and is a useful model of intraneuronal Abeta-42 induced neurodegeneration with amyloid increase brain content and amyloid plaque formation and tau hyperphosphorylation (J Neurosci. 2006, 26(40), 10129-10140).
(§2) The test compound was dissolved in 1.8% hydroxypropyl-beta-cyclodextrin and concentration in water was calculated according to the weekly animal consumption to reach the precise daily dose. A freshly made weekly replaces the drinking solution. The amount of water that the animals drink was monitored weekly, by the cage, and drug concentration was adjusted every week to reach the precise dose. […]
(§3) Afterwards, membranes were washed and incubated with secondary antibodies for 1 h at room temperature. […] Immunodetection of GADPH routinely monitored protein loading. […]

[2] = test system: 5×FAD mice; test: Novel Object Recognition Test (NORT) in 5×FAD mouse model of Alzheimer disease; format: in vivo; settings: 5×FAD model, 5 mg/kg, treated vs control groups
Text: 5×FAD (tg6799) is an early-onset mouse transgenic model which overexpress mutant human APP(695) with the Swedish (K670N, M671L), Florida (I716V) and London (V717I) Familial Alzheimer's Disease (FAD) mutations along with human PS1 harbouring two FAD mutations (M146L and L286V). The Tg6799 line used is the original hybrid B6SJL background, and this hybrid B6SJL strain is used as a control of healthy animals. The mouse Thy1 promoter regulates both transgenes to drive overexpression in the brain. […]
as §2, with “A freshly made weekly replaces the drinking solution.” left out
Mice were placed in a 90°, two-arm, 25-cm-long, 20-cm-high, 5-cm-wide black maze. […] During this second trial, objects A and B were placed in the maze and the behaviour of the mice was recorded with a camera. The time that the mice explored the New object (TN) and Time that the mice explored the Old object […] (TO) were measured. […]

[3] = test system: mouse primary microglia; test: AβO-induced microglial activation, qPCR; format: cell-based; settings: pretreated with compound followed by Aβ1-42 (2 μM)
Protocol: To validate the inhibition efficacy of sEH, 3×10^5 microglia isolated from CD1 mouse brain were seeded onto 12 well culture plates in microglia medium.
Total RNAs were isolated from microglia or astrocyte using a Quick-RNA kit (Zymo Research, Inc., Irvine, CA, USA). The concentration of total RNAs was measured using a UV-Vis spectrophotometer (NanoDrop8000, Thermo Fisher Scientific Inc., Wilmington, DE, USA) and reverse-transcribed with a high-capacity cDNA reverse transcription kit (Applied Biosystems, Carlsbad, CA, USA). Gene expression was quantified by Fast SYBR green real-time PCR on a Quantstudio 5 system (Applied Biosystems). The primer sequences are listed below (Table 8). Data were analyzed according to the comparative Ct method. Glyceraldehyde 3-phosphate dehydrogenase (Gapdh) was used to normalize the amounts of cDNA within each sample.

[4] = test system: GFAP; test: Western blot of hippocampus, neuroinflammation marker GFAP (5×FAD mice); format: in vivo, mouse; settings: 5×FAD male mice, 5 mg/kg, 4 weeks, Arbitrary Units, control as 100%
Text: as §1, §2, §3

[5] = test system: CD1 mice; test: Seizure assay (pentylenetetrazole, PTZ test); format: in vivo, mouse
Protocol: Test compounds were dissolved in 20% hydroxypropyl-beta-cyclodextrin and concentration was calculated according to the animal weigh to reach the precise dose. Animals were housed in standard care facilities with a 12 hours light-dark cycle with free access to water and food.
To investigate the ability of compounds to cross the blood-brain barrier (BBB), a standard acute test involving the administration of pro-convulsant pentylenetetrazole (PTZ) was employed [Inceoglu et al, PLoS ONE, 2013, 8(12), e80922; WO 2015/148954 A1]. In the test, PTZ was administered at 85 mg/Kg by subcutaneous route, time to onset of first clonic seizure, average of clonic seizures, tonic seizure latency and lethality were monitored for 30 min. Vehicles or compounds were administered by gavage at 5 mg/kg 1 h prior to pro-convulsant.

[6] = test system: amyloid plaques; test: Thioflavin S staining of amyloid plaques in brain slices (5×FAD mice); format: in vivo, mouse; settings: 5×FAD male mice 6-month-old, 5 mg/kg, 4 weeks, mean ± SEM
Text: as §1
The test compound was dissolved in 1.8% hydroxypropyl-beta-cyclodextrin and concentration in water was calculated according to the weekly animal consumption to reach the precise daily dose. A freshly made weekly replaces the drinking solution. The amount of water that the animals drink was monitored weekly, by the cage, and drug concentration was adjusted every week to reach the precise dose. After 4 weeks of maintained treatment, mice were studied in the behavioural tests.
After NORT, animals were sacrificed and the whole hippocampus dissected or brain slices from control and treated mice obtained by using a cryostat. […]

[7] = listed as compound of example 2
[8] = 5 mg/kg by gavage 1 h prior to PTZ 85 mg/Kg s.c., monitored 30 min

O=C(NC12CC3CC(Cl)(CC(C1)c1ccccc13)C2)N[C@H]1CC[C@H](Oc2ccc(C(=O)O)cc2)CC1 [Example 2, 4-[((1r,4r)-4-(3-(9-chloro-5,6,8,9,10,11-hexahydro-7H-5,9:7,11-dimethanobenzo[9]annulen-7-yl)ureido)cyclohexyl)oxy]benzoic acid]
TREM2 protein levels ([1]; listed as Cpd. Ex. 2): 118.42 ± 6.53*^ | TREM2 protein levels [1, 7]: significant diminution in the protein levels | memory deficits by NORT [2]: reduced memory deficits | mRNA for pro-inflammatory cytokines II-6 and II-1b [3]: prevented | GFAP protein levels ([4]; listed as Cpd. Ex. 2): 125.85 ± 9.21*^ | GFAP protein levels [4, 7]: significant diminution in the protein levels | Average clonic seizure [5, 8]: 1.25 | Mean time to clonic seizure latency [5, 8]: 1006.5 s | Protected from tonic/total (Mortality) [5, 8]: 6/6**** | Mean time to tonic seizure ([5]; 5 mg/kg by gavage 1 h prior to PTZ 85 mg/Kg s.c., animals without tonic seizure within 30 min excluded): 0.00 s | Mean time to tonic seizure in seconds ([5]; 5 mg/kg by gavage 1 h prior to PTZ 85 mg/Kg s.c., animals without tonic seizure within 30 min excluded, listed as compound of Example 2): delay onset of tonic seizures | protection from convulsions and associated lethality ([5]; PTZ test, 5 mg/kg by gavage): protect mice from convulsions and associated lethality | Number of Aβ plaques [6]: 292 ± 83
